O=C(NC(Cc1cc(=O)[nH]c2ccccc12)C(=O)O)c1ccc(Cl)cc1 (stereo not given)
Conditions | solubility (mole fraction)
in PEG-400, 288.15 K | 0.00236
in PEG-400, 293.15 K | 0.0025
in PEG-400, 298.15 K | 0.00264
in PEG-400, 303.15 K | 0.00278
in PEG-400, 308.15 K | 0.00292

solubility (mole fraction)
Conditions | 288.15 K | 293.15 K | 298.15 K | 303.15 K | 308.15 K
in acetone | 1.01e-05 | 1.2e-05 | 1.43e-05 | 1.7e-05 | 2e-05
in acetonitrile | 8.25e-07 | 1.07e-06 | 1.38e-06 | 1.74e-06 | 2.2e-06
in ethanol | 7.58e-05 | 8.61e-05 | 9.68e-05 | 0.000109 | 0.000122
in ethyl acetate | 1.91e-06 | 2.21e-06 | 2.56e-06 | 2.94e-06 | 3.38e-06
in glycerin | 2.97e-06 | 3.45e-06 | 4.02e-06 | 4.63e-06 | 5.35e-06
in isopropanol | 3.82e-05 | 4.75e-05 | 5.83e-05 | 7.17e-05 | 8.79e-05
in methanol | 7.56e-05 | 8.55e-05 | 9.59e-05 | 0.000107 | 0.00012
in n-butanol | 5.47e-05 | 6.51e-05 | 7.73e-05 | 9.12e-05 | 0.000107
in n-propanol | 6.1e-05 | 7.1e-05 | 8.24e-05 | 9.55e-05 | 0.000109
in propylene glycol | 0.000204 | 0.000224 | 0.000246 | 0.000268 | 0.000291
in water | 5.17e-07 | 6.74e-07 | 8.69e-07 | 1.12e-06 | 1.43e-06

Source: BigSolDB 2.1
